Columns and labels:
[1] = biological target: T1, human glucocorticoid receptor-α [GRX] isoform (Homo sapiens, UniProt P04150); experiment: Radioligand binding with human glucocorticoid receptor cytosol ([3H]-dexamethasone competition); details: GRX cytosol expressed in insect SF21 cells, [3H]-Dex ~0.9 nM, 4° C. overnight; Ki by Cheng-Prusoff, KL ~[…]; read-out: Ki (nM) GR
T1 construct: host or cells: insect SF21 cells (baculovirus)
T1 sequence (P04150 1-777): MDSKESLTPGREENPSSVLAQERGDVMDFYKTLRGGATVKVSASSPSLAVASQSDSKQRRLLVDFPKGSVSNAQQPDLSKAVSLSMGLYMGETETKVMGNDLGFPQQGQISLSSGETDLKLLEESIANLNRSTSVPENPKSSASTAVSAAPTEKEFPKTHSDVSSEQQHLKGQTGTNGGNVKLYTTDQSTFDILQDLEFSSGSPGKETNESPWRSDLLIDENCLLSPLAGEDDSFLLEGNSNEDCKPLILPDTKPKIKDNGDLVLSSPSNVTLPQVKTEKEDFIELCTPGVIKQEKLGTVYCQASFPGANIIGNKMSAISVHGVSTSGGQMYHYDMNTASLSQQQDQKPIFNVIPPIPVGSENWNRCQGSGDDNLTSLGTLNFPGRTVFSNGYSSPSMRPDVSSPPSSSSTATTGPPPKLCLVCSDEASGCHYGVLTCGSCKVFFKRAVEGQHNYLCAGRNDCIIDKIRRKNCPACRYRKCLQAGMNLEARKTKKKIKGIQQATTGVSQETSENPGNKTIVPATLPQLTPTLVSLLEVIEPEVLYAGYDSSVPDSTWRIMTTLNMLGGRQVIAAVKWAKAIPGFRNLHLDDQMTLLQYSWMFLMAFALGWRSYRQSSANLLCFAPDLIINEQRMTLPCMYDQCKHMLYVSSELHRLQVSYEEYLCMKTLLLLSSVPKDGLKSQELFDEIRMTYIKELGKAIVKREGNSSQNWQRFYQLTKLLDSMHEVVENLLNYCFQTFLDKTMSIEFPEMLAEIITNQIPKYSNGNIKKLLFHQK

[2] = biological target: T2, human progesterone receptor-A [PRA] isoform (Homo sapiens, UniProt P06401); experiment: Radioligand binding with human progesterone receptor cytosol ([3H]-progesterone competition); details: PRA cytosol expressed in insect SF21 cells, [3H]Prog ~0.8 nM, 4° C. overnight; Ki by Cheng-Prusoff, KL ~4.5 nM; read-out: Ki (nM) PR
T2 construct: host or cells: insect SF21 cells (baculovirus)
T2 sequence (P06401 1-769 isoform P06401-2): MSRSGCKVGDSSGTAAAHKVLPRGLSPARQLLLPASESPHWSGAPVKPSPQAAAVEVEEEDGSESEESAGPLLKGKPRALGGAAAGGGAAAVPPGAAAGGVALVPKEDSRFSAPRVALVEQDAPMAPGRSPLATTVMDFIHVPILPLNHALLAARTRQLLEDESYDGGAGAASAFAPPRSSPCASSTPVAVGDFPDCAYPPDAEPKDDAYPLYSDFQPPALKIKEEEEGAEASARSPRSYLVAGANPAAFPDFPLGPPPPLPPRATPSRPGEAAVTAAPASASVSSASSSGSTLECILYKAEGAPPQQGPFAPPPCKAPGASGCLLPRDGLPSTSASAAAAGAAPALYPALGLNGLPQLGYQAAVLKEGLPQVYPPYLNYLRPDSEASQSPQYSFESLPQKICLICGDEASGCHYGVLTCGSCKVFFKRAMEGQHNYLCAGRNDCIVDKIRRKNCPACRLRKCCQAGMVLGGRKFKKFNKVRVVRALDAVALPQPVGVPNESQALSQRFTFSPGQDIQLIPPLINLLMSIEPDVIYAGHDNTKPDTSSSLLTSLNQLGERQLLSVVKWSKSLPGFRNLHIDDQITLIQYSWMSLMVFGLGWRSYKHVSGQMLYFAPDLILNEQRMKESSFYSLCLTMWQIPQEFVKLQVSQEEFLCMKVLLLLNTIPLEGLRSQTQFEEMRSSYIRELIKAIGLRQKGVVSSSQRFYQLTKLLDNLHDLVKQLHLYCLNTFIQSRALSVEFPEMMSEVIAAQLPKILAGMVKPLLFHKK
Procedure: Both receptor cDNAs were cloned into baculovirus expression vectors and expressed in insect SF21 cells.
Stock solutions (32 mM) of compounds were prepared in dimethylsulfoxide (DMSO), and 50× solutions of test compounds were prepared from the 32 mM solution with a 50:50 mixture of DMSO/ethanol. The 50× solution was then diluted with binding buffer that contained 10 mM Tri-HCl, 1.5 mM EDTA, 10% glycerol, 1 mM DTT, 20 mM sodium molybdate, pH 7.5 @4° C. 1% DMSO/ethanol was present in the binding assay.
For PR binding assays, [^3H]Prog (˜36,000 dpm (˜0.8 nM)), PRA cytosol (˜40 μg protein), test compounds and binding buffer were mixed in a total volume of 200 μL and incubated at 4° C at overnight in a plate shaker. Specific binding was defined as the difference between binding of [^3H]Prog in the absence and in the presence of 3 μM unlabelled Prog.
After an overnight incubation, 50 μL of hydroxyapatite (25% weight/volume) slurry were added to each well and plates were incubated for 10 min at 0° C. in a plate shaker. Plates were suctioned with a Millipore vacuum manifold and each well was rinsed with 300 μL of ice-cold binding buffer. A 250 μL aliquot of Packard Microscint-20 was added to each well and the wells were shaken at room temperature for 20 minutes. The amount of radioactivity was determined with a Packard TopCount plate reader.
The Ki of test compounds was determined using the Cheng-Prusoff equation Ki=IC50/(1+[L*]/[KL]) where L* is the concentration of radioligand and KL is the dissociation constant of the radioligand determined from saturation analysis.

Row | Compound | Ki [1] [nM] | Ki [2] [nM]
1 | COc1c(O)ccc2c1-c1ccc3c(c1C(C(C)C)O2)C(C)=CC(C)(C)N3 (centres unmarked) [Example 267, 2,5-Dihydro-9-hydroxy-10-methoxy-2,2,4-trimethyl-5-(2-propyl)-1H-[1]benzopyrano[3,4-f]quinoline] | 0.79 | 938
2 | COc1ccc(C2Oc3ccc(O)c(OC)c3-c3ccc4c(c32)C(C)=CC(C)(C)N4)s1 (centres unmarked) [Example 268, 2,5-Dihydro-9-hydroxy-10-methoxy-2,2,4-trimethyl-5-(5-methoxy-2-thienyl)-1H-[1]benzopyrano[3,4-f]quinoline] | 0.84 | 486
3 | COc1c(O)ccc2c1-c1ccc3c(c1[C@H]([C@@H]1C=CCCC1)O2)C(C)=CC(C)(C)N3 [Example 272, (−)(5S,3′S)2,5-Dihydro-9-hydroxy-10-methoxy-2,2,4-trimethyl-5-(3-cyclohexenyl)-1H-[1]benzopyrano[3,4-f]quinoline] | 0.39 | 66.4
4 | COc1c(O)ccc2c1-c1ccc3c(c1[C@H]([C@H]1C=CCCC1)O2)C(C)=CC(C)(C)N3 [Example 273] | 0.56 | 35.8
5 | CCC1=C[C@@H]([C@H]2Oc3ccc(O)c(OC)c3-c3ccc4c(c32)C(C)=CC(C)(C)N4)CCC1 [Example 277] | 11.3 | 272
6 | COc1c(O)ccc2c1-c1ccc3c(c1C(C1CCCCC1)O2)C(C)=CC(C)(C)N3 (centres unmarked) [Example 278, 2,5-Dihydro-9-hydroxy-10-methoxy-2,2,4-trimethyl-5-cyclohexyl-1H-[1]benzopyrano[3,4-f]quinoline] | 1.1 | 533
7 | COc1c(O)ccc2c1-c1ccc3c(c1CO2)C(C)=CC(C)(C)N3 [Example 279, 2,5,5-Trihydro-9-hydroxy-10-methoxy-2,2,4-trimethyl-1H-[1]benzopyrano[3,4-f]quinoline] | 12.4 | 1900
8 | C=C(CO)CC1Oc2ccc(O)c(OC)c2-c2ccc3c(c21)C(C)=CC(C)(C)N3 (centres unmarked) [Example 280, 2,5-Dihydro-9-hydroxy-10-methoxy-2,2,4-trimethyl-5-(2-hydroxymethyl-3-propenyl)-1H-[1]benzopyrano[3,4-f]quinoline] | 1.6 | ≥ 10000
9 | COC(=O)CC1Oc2ccc(O)c(OC)c2-c2ccc3c(c21)C(C)=CC(C)(C)N3 (centres unmarked) [Example 281, Methyl 2-[2,5-Dihydro-9-hydroxy-10-methoxy-2,2,4-trimethyl-1H-[1]benzopyrano[3,4-f]-5-quinoline]acetate] | 0.84 | 526
10 | C/C=C\CC1Oc2ccc(O)c(OC)c2-c2ccc3c(c21)C(C)=CC(C)(C)N3 (centres unmarked) [Example 282, (Z)2,5-Dihydro-9-hydroxy-10-methoxy-2,2,4-trimethyl-5-(2-butenyl)-1H-[1]benzopyrano[3,4-f]quinoline] | 0.5 | 42
11 | COc1c(O)ccc2c1-c1ccc3c(c1C(CC=C(C)C)O2)C(C)=CC(C)(C)N3 (centres unmarked) [Example 283, 2,5-Dihydro-9-hydroxy-10-methoxy-2,2,4-trimethyl-5-(3-methyl-2-butenyl)-1H-[1]benzopyrano[3,4-f]quinoline] | 1.1 | 60.4
12 | COc1c(O)ccc2c1-c1ccc3c(c1[C@@H]([C@H]1C=CCCC1)O2)C(C)=CC(C)(C)N3 [Example 285] | 436 | 3760
13 | COc1c(O)ccc2c1-c1ccc3c(c1[C@@H]([C@@H]1C=CCC1)O2)C(C)=CC(C)(C)N3 [Example 286] | 64 | 3030
14 | COc1c(O)ccc2c1-c1ccc3c(c1[C@@H]([C@H]1C=CCC1)O2)C(C)=CC(C)(C)N3 [Example 287] | 346 | 3500
15 | C=C(C)CC1Oc2ccc(O)c(OC)c2-c2ccc3c(c21)C(C)=CC(C)(C)N3 (centres unmarked) [Example 289, 2,5-Dihydro-9-hydroxy-10-methoxy-2,2,4-trimethyl-5-(2-methyl-3-propenyl)-1H-[1]benzopyrano[3,4-f]quinoline] | 0.73 | 260
16 | C=CCC1Oc2ccc(OC)c(OC)c2-c2ccc3c(c21)C(C)=CC(C)(C)N3 (centres unmarked) [Example 290, 9,10-Dimethoxy-5-(3-propenyl)-2,2,4-trimethyl-1H-2,5-dihydro-[1]benzopyrano[3,4-f]quinoline] | 12.1 | 611
17 | C=CCC1Oc2ccc(OCC)c(OC)c2-c2ccc3c(c21)C(C)=CC(C)(C)N3 (centres unmarked) [Example 292, 10-Methoxy-9-ethoxy-5-(3-propenyl)-2,2,4-trimethyl-1H-2,5-dihydro-[1]benzopyrano[3,4-f]quinoline] | 487 | 8340
18 | C#CCOc1ccc2c(c1OC)-c1ccc3c(c1C(CC=C)O2)C(C)=CC(C)(C)N3 (centres unmarked) [Example 294, 10-Methoxy-9-(3-propynyloxy)-5-(3-propenyl)-2,2,4-trimethyl-1H-2,5-dihydro[1]benzopyrano[3,4-f]quinoline] | 13.8 | 1810
19 | C=CCC1Oc2ccc(OC(C)=O)c(OC)c2-c2ccc3c(c21)C(C)=CC(C)(C)N3 (centres unmarked) [Example 295, 2,5-Dihydro-9-acetoxy-10-methoxy-2,2,4-trimethyl-5-(2-propenyl)-1H-[1]benzopyrano[3,4-f]quinoline] | 0.67 | 59.3
20 | C=CCC1Oc2ccc(OC(=O)CCC(=O)N(C)C)c(OC)c2-c2ccc3c(c21)C(C)=CC(C)(C)N3 (centres unmarked) [Example 296, 2,5-Dihydro-9-(4-N,N-dimethylamino-4-oxo-butanoyloxy)-10-methoxy-2,2,4-trimethyl-5(2-propenyl)-1H-[1]benzopyrano[3,4-f]quinoline] | 0.63 | 476
21 | COc1ccc(Br)c2c1-c1ccc3c(c1C(C1C=CCCC1)O2)C(C)=CC(C)(C)N3 (centres unmarked) [Example 297] | 4.7 | 4840
22 | C=CCC1Oc2c(Br)ccc(OC)c2-c2ccc3c(c21)C(C)=CC(C)(C)N3 (centres unmarked) [Example 298, 10-Methoxy-7-bromo-5-(3-propenyl)-2,2,4-trimethyl-1H-2,5-dihydro-[1]benzopyrano[3,4-f]quinoline] | 4.1 | ≥ 10000
23 | COc1ccc(Br)c2c1-c1ccc3c(c1C(C1C=C(C)CCC1)O2)C(C)=CC(C)(C)N3 (centres unmarked) [Example 299] | 5.4 | 2900
24 | C=CCC1Oc2ccc(Br)c(OC)c2-c2ccc3c(c21)C(C)=CC(C)(C)N3 (centres unmarked) [Example 300, 10-Methoxy-9-bromo-5-(3-propenyl)-2,2,4-trimethyl-1H-2,5-dihydro-[1]benzopyrano[3,4-f]quinoline] | 5.3 | 34.4
25 | C=CCC1Oc2c(Br)cc(Br)c(OC)c2-c2ccc3c(c21)C(C)=CC(C)(C)N3 (centres unmarked) [Example 301, 7,9-Dibromo-10-methoxy-5-(3-propenyl)-2,2,4-trimethyl-1H-2,5-dihydro[1]benzopyrano[3,4-f]quinoline] | 16 | 113
26 | COc1c(Br)cc(Br)c2c1-c1ccc3c(c1C(C1C=CCCC1)O2)C(C)=CC(C)(C)N3 (centres unmarked) [Example 302, 7,9-Dibromo-5-[cyclohexen-3-yl]-10-methoxy-2,2,4-trimethyl-2,5-dihydro-1H-[1]benzopyrano[3,4-f]quinoline] | 5.9 | 99
27 | COc1c(Br)cc(Br)c2c1-c1ccc3c(c1C(C1C=C(C)CCC1)O2)C(C)=CC(C)(C)N3 (centres unmarked) [Example 303] | 4.9 | 58.5
28 | C=CCC1Oc2c(C=C)ccc(OC)c2-c2ccc3c(c21)C(C)=CC(C)(C)N3 (centres unmarked) [Example 304, 10-Methoxy-7-(2-ethenyl)-5-(3-propenyl)-2,2,4-trimethyl-1H-2,5-dihydro-[1]benzopyrano[3,4-f]quinoline] | 34.5 | 681
